# Test results from paper PMC6942458 (ACS chemical biology, 2019).
# Key:
# SIRT3 = target: T1, SIRT3 (Homo sapiens, UniProt Q9NTG7); assay: SIRT3 deacetylase inhibition assay; type: biochemical
# T1 sequence (Q9NTG7 1-399): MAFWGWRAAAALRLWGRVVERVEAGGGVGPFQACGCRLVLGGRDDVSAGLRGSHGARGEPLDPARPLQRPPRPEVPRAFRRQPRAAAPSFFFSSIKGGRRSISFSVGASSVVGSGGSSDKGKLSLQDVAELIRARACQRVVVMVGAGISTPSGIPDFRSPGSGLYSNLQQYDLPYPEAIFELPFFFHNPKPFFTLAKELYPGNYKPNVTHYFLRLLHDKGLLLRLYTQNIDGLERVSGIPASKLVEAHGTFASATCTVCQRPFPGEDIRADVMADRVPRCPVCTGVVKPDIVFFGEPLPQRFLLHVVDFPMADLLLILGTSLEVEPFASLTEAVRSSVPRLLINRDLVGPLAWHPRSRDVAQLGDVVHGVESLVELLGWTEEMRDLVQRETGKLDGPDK
# MCF7 cells [1] = assay: MCF7 cell permeability/availability assay; type: in vitro ADME; conditions: for level of inhibitor detected in cells: 6 hours
# MCF7 cells [2] = assay: Soft agar colony formation assay; type: cell-based; conditions: MCF7, 12 μM, 10 days
# [3] = 50 mM DMSO stock diluted to 5 mg/ml in PBS
# [4] = system: various cancer cell lines; conditions: breast, pancreatic, colon, lung and many more; cited from earlier work
# breast cancers = conditions: xenograft model and genetic model of breast cancers in mice; cited from earlier work
compound,measurement,setting,value
CCCCCCCCCCCCCC(=S)NCCCCC(NC(=O)OCc1ccccc1)C(=O)Nc1ccccc1 (centres unmarked) [TM],SIRT3 inhibition at 83 μM,SIRT3,did not inhibit
same,level of inhibitor detected in cells,"MCF7 cells [1]; MCF7, 25 μM",about 0.29 μg/million cells
same,level of inhibitor detected in cells,"MCF7 cells [1]; MCF7, 50 μM",~0.30 μg/million cells
same,compound detected in treated cells,"MCF7 cells [1]; MCF7 cells treated 6 hours, LC-MS",approximately 0.30 μg/million cells
same,colony formation in soft agar,MCF7 cells [2],formed many colonies
same,solubility in PBS (precipitation),[3],white precipitation formed instantly
same,cytotoxicity in cancer cell lines,[4],cytotoxic
same,tumor growth,breast cancers,inhibited tumor growth
